Values of other authors, collected in patent publication US6224863A, “Antibiotic composition from alcaligenes species and method for making and using the same” (University of South Carolina, priority 1998, dated 2001).

Assays:
Staphylococcus aureus = conditions: strains of Staphylococcus aureus
S. epidermidis = conditions: strains of S. epidermidis

Question: With `CCCCCc1cc(O)c2ccccc2n1` [2-n-pentylquinolinol] as the compound, how does the antibiotic activity (Vibrio harveyi) read?
Answer: exhibits activity

Question: What does the source list for `C=C(CC/C=C\C=C\CC(C)CC(=O)CC(O)CNC(=O)C(C)C(C)OC(N)=O)CC(C)C/C(C)=C/C(=O)O` (centres unmarked) [kalimantacin A]?
Answer: antibacterial activity (Staphylococcus aureus): only effective; antibacterial activity (S. epidermidis): only effective

Question: Which antibacterial activity (Staphylococcus aureus) does the source give for `C=C(CC/C=C/C=C/CC(C)CC(=O)CC(O)CNC(=O)C(C)C(C)OC(N)=O)CC(C)C/C(C)=C/C(=O)O` (centres unmarked) [kalimantacin B] here?
Answer: only effective

Question: What about the antibacterial activity (S. epidermidis) of the same compound?
Answer: only effective

Question: For `C=C(CC/C=C\C=C\CC(C)CC(=O)CC(O)CNC(=O)CC(C)OC(N)=O)CC(C)C/C(C)=C/C(=O)O` (centres unmarked) [kalimantacin C], which antibacterial activity (Staphylococcus aureus) is on record?
Answer: only effective

Question: What about the antibacterial activity (S. epidermidis) of the same compound?
Answer: only effective

Question: With `Brc1[nH]c(Br)c(Br)c1Br` [tetrabromopyrrole] as the compound, how does the antibiotic activity (other marine bacteria) read?
Answer: effective against other marine bacteria
